US9623073B2, “Learning motivation improvers” (SUNTORY HOLDINGS LIMITED, priority 2009, dated 2017)
Read-outs that look alike come from different tables or passages of the source.

Columns and labels:
C57BL/6 mice = experiment: Morris water maze (MWM) after open space swimming (OSS), learning motivation; assay type: in vivo; conditions: for improving effect on learning motivation over control group (OSS-Vehicle): 20 mg/kg, MWM, FIG. 2
Procedure: On the other hand, the Morris water maze test has been reported as a method for measuring spatial memory and learning (Learn. Motiv. 12, 239-260 (1981)). In this test, the time required to reach an escape platform (escape latency) is used as a parameter for evaluation, because mice will remember their surrounding scenery and swim in a pool filled with water to try to find and reach the escape platform, which is a goal, with their memory as a guide. Since mice to be used in this test are treated to reduce their motivation by being allowed to swim in a pool having no escape platform before the Morris water maze test, a reduction in the time required to reach the escape platform can be regarded as an improvement in learning motivation.
Compound A was evaluated for its antidepressive effect and enhancing effect on learning motivation by the method known in the art, i.e., Morris Water Maze (MWM).
First, water which had been colored black with Indian ink was filled into a cylindrical tank of 90 cm diameter and 35 cm height to give a water depth of 20 cm, and the water temperature was set to 22±1° C. To this tank, C57BL/6 mice (male, 9 weeks of age) were each transferred and allowed to experience open space swimming (OSS). Upon OSS, mice will cause changes in their behavior and enter a state corresponding to depression. After repeating OSS for 5 days, the mice were divided into 7 groups.
Next, in the above cylindrical tank of 90 cm diameter and 35 cm height, an escape platform of 10 cm diameter was placed at a water depth of 0.5 cm. The above 7 groups of mice were each orally administered with compound A (Bachem AG (Bubendorf, Switzerland)) or with a comparative drug, fluvoxamine maleate, in the form of a suspension in physiological saline. After 60 minutes, each mouse was transferred to the tank provided with the escape platform, and measured for the time required to find out the invisible escape platform placed below the water surface (i.e., escape latency) to evaluate the spatial memory and learning ability of each mouse (MWM). As control mice, animals experiencing no OSS were administered with physiological saline and subjected to MWM. MWM was repeated five times a day for 10 days.
In the same manner as shown in Example 2, mice were administered with 20 mg/kg compound A and then subjected to the MWM test. As a control, a linear dipeptide (Phe-Phe) was administered at 20 mg/kg, followed by the MWM test.
In the same manner as shown in Example 2, another group receiving 0.002 mg/kg administration was prepared and subjected to the same MWM test.

[1] = target: T1, human serotonin transporter expressed in CHO cells (Homo sapiens, UniProt P31645); experiment: Inhibitory activity on serotonin transporter binding (3H-imipramine)
T1 construct: expressed in transfected cells; host or cells: CHO cells
T1 sequence (P31645 whole entry): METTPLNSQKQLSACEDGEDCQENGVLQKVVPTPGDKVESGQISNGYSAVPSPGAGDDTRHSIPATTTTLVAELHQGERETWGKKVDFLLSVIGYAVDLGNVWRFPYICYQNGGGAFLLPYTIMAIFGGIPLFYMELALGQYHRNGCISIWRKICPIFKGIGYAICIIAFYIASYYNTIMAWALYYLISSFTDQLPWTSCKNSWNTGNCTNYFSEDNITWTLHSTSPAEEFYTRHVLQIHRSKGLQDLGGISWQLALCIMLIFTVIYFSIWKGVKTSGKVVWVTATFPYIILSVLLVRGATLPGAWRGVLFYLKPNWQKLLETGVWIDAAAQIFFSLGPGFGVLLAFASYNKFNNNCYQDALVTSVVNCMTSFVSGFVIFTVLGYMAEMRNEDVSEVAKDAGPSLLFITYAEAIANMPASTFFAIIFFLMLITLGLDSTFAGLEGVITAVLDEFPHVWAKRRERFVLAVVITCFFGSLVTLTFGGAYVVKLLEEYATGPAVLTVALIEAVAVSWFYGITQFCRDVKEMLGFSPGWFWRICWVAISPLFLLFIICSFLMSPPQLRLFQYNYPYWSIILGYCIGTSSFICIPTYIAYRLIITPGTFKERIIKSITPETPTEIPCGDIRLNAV
Procedure: As used herein, the term “SSRI antidepressant” is intended to mean an agent that selectively binds to the serotonin transporter and inhibits the reuptake of serotonin through this serotonin transporter. Inhibitory activity on serotonin transporter binding may be measured, for example, as described in Eur. J. Pharmacol., 368: 277-283, 1999. Namely, it is measured by determining whether ^3H-labeled imipramine binds to the human serotonin transporter expressed in CHO cells.
(§1) Various cyclic dipeptides were measured for their inhibitory activity on serotonin transporter binding and norepinephrine transporter binding, as described in the prior documents mentioned above (Eur J Pharmacol, 368, 277-283, 1999 for inhibitory activity on serotonin transporter binding; and Nature, 350, 350-354, 1991 for inhibitory activity on noradrenaline transporter binding). Compound C was synthesized by Peptide Institute, Inc., Japan, and the other cyclic dipeptides were purchased from Bachem AG (Bubendorf, Switzerland). The results were expressed as IC50 values, i.e., the concentrations of the various cyclic peptides required for 50% inhibition of binding to each transporter (Table 1).

[2] = target: T2, human norepinephrine transporter expressed in CHO cells (Homo sapiens, UniProt P23975); experiment: Inhibitory activity on norepinephrine transporter binding (3H-nisoxetine); conditions: for IC50: concentration required for 50% inhibition of binding
T2 construct: expressed in transfected cells; host or cells: CHO cells
T2 sequence (P23975 whole entry): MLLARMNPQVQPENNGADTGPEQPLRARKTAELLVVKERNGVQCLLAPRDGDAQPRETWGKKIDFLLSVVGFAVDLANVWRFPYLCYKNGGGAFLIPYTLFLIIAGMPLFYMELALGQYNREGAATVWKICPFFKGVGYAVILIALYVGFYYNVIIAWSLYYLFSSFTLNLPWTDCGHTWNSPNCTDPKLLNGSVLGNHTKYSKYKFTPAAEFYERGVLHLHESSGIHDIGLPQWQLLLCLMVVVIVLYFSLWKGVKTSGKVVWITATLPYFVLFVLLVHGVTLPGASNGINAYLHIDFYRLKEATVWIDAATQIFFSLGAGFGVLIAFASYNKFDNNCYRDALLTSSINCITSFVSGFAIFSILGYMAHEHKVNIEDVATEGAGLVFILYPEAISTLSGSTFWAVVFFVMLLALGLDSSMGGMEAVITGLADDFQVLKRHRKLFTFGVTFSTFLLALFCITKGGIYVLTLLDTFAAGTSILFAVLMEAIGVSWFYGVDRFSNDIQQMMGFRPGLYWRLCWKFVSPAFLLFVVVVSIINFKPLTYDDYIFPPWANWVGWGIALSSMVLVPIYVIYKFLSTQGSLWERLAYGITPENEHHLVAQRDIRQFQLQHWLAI
Procedure: The term “SNRI antidepressant” is intended to mean an agent that binds to both serotonin and norepinephrine transporters, and inhibits the reuptake of serotonin and norepinephrine. Inhibitory activity on norepinephrine transporter binding may be measured, for example, as described in Nature, 350: 350-354, 1991. Namely, it is measured by determining whether ^3H-labeled nisoxetine binds to the human norepinephrine transporter expressed in CHO cells.
as §1

mice = experiment: Single-dose (acute) toxicity study; assay type: in vivo; conditions: administered at 2 g/kg
rats = experiment: 28-day repeated dose toxicity study; assay type: in vivo
[3] = Genetic toxicity studies (Ames test, chromosomal aberration test, mouse micronucleus test)
[4] = concentration required for 50% inhibition of binding, read-out: IC50, serotonin transporter (converted)

IC50 [2] [µM] | Molecule | inhibitory activity on serotonin transporter binding (in words) [1] | IC50 [1, 4] [µM] | inhibitory activity on norepinephrine transporter binding (in words) [2] | further results
– | Phe-Phe [reference compound] | – | – | – | improving effect on learning motivation over control group (OSS-Vehicle) (C57BL/6 mice): not confirmed to have a significant effect
– | O=C1N[C@@H](Cc2c[nH]c3ccccc23)C(=O)N2CCC[C@@H]12 [Compound C, pyrrolo[1,2-a]pyrazine-1,4-dione,hexahydro-3-(1H-indol-3-ylmethyl)-,(3S,8aS)] | have inhibitory activity on serotonin transporter binding | 3740 | – | –
10700 | CC(C)[C@@H]1NC(=O)[C@@H]2CCCN2C1=O [Compound F, pyrrolo[1,2-a]pyrazine-1,4-dione,hexahydro-3-(1-methylethyl)-,(3S,8aS)] | – | – | have inhibitory activity on norepinephrine transporter binding | –
148 | O=C1N[C@@H](Cc2c[nH]c3ccccc23)C(=O)N[C@H]1Cc1c[nH]c2ccccc12 [Compound D, 2,5-piperazinedione,3,6-bis(1H-indol-3-ylmethyl)-,(3S,6S)] | – | – | have inhibitory activity on norepinephrine transporter binding | –
– | O=C1N[C@@H](Cc2ccccc2)C(=O)N[C@H]1Cc1ccccc1 [Compound A, 2,5-piperazinedione,3,6-bis(phenylmethyl)-,(3S,6S)] | have inhibitory activity on serotonin transporter binding | 8.15 | – | IC50 ([1]; read-out: concentration (IC50) required for 50% inhibition of serotonin transporter binding): 8.1 µM; toxicity in single-dose (acute) toxicity study (mice): no toxicity; maximum no-effect dose (rats): ≥ 2 g/kg/day; mutagenicity [3]: no mutagenicity; reduction of escape latency compared to control group (OSS-Saline) (C57BL/6 mice; 0.02 mg/kg oral, at 10 days of MWM): around 20%; time required to reach the escape platform versus fluvoxamine maleate group (C57BL/6 mice; 20 mg/kg oral, at 10 days of MWM): substantially the same; improving effect on learning motivation over control group (OSS-Vehicle) (C57BL/6 mice): significant improving effect on learning motivation; human dose predicted from the effective dose in mice (C57BL/6 mice; 1/10 of the mouse dose 0.02 mg/kg): 0.1 mg/human (50 kg); escape latency, dose dependence (C57BL/6 mice; OSS mice, oral, MWM for 10 days, FIG. 1): dose-dependent reduction in the escape latency; dose at which the effect is exerted (C57BL/6 mice; mice, time to reach the escape platform at 7 days of MWM, FIG. 3): ≥ 0.02 mg/kg
– | O=C1N[C@@H](Cc2c[nH]cn2)C(=O)N2CCC[C@@H]12 [Compound B, pyrrolo[1,2-a]pyrazine-1,4-dione,hexahydro-3-(1H-imidazol-4-ylmethyl)-,(3S,8aS)] | have inhibitory activity on serotonin transporter binding | 2480 | – | –
2000 | CC(C)C[C@@H]1NC(=O)[C@@H]2CCCN2C1=O [Compound E, pyrrolo[1,2-a]pyrazine-1,4-dione,hexahydro-3-(2-methylpropyl)-,(3S,8aS)] | – | – | have inhibitory activity on norepinephrine transporter binding | –
